Reference: ChEMBL document CHEMBL1201862, “PubChem BioAssay data set” (2004)
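How tested: cells in 96-well plates exposed to compound for 48 hours at five concentrations. Here, GI50 denotes the concentration required for 50% inhibition of growth.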 Calls of active or inactive are those of the source. Cut-off read from the data, not from the text of the source: active = GI50 up to about 1.1 µM and inactive = higher.

What was measured:
Experiment in all cases: growth of human tumour cells (NCI), 48 h
A549 = test system: A549
BT-549 = test system: BT-549
CAKI-1 = test system: CAKI-1
CCRF-CEM = test system: CCRF-CEM
COLO 205 = test system: COLO 205
K562 = test system: K562
NCI-H23 = test system: NCI-H23
NCI/ADR-RES = test system: NCI/ADR-RES
OVCAR-5 = test system: OVCAR-5
PC-3 = test system: PC-3
RPMI-8226 = test system: RPMI-8226
SK-MEL-28 = test system: SK-MEL-28
T47D = test system: T47D
U-251 = test system: U-251
UACC-62 = test system: UACC-62
UO-31 = test system: UO-31
OVCAR-4 = test system: OVCAR-4
HOP-92 = test system: HOP-92
Hs-578T = test system: Hs-578T
HL-60 = test system: HL-60

S=c1[nH]nc(Cn2c3ccc(Br)cc3c3nc4ccccc4nc32)o1
GI50 (A549): 22.8 µM (inactive)
GI50 (BT-549): > 63.2 µM (inactive)
GI50 (CAKI-1): 41.6 µM (inactive)
GI50 (CCRF-CEM): 24.7 µM (inactive)
GI50 (COLO 205): 46.9 µM (inactive)
GI50 (K562): 35.1 µM (inactive)
GI50 (NCI-H23): 25.2 µM (inactive)
GI50 (NCI/ADR-RES): 74.5 µM (inactive)
GI50 (OVCAR-5): > 84.5 µM (inactive)
GI50 (PC-3): 4.79 µM (inactive)
GI50 (RPMI-8226): 4.29 µM (inactive)
GI50 (SK-MEL-28): 27.3 µM (inactive)
GI50 (T47D): 47.3 µM (inactive)
GI50 (U-251): 0.944 µM (active)
GI50 (UACC-62): 27.5 µM (inactive)
GI50 (UO-31): 16.3 µM (inactive)

COCP1(=S)OC(C)CCN1C(C)C (stereo not given)
GI50 (A549): > 100 µM (inactive)
GI50 (BT-549): > 100 µM (inactive)
GI50 (CAKI-1): > 100 µM (inactive)
GI50 (COLO 205): > 100 µM (inactive)
GI50 (K562): > 100 µM (inactive)
GI50 (NCI-H23): > 100 µM (inactive)
GI50 (NCI/ADR-RES): > 100 µM (inactive)
GI50 (OVCAR-4): > 100 µM (inactive)
GI50 (OVCAR-5): > 100 µM (inactive)
GI50 (PC-3): > 100 µM (inactive)
GI50 (RPMI-8226): > 100 µM (inactive)
GI50 (T47D): > 100 µM (inactive)
GI50 (U-251): > 100 µM (inactive)
GI50 (UACC-62): > 100 µM (inactive)
GI50 (UO-31): > 100 µM (inactive)

Clc1sc(Cl)c2c1[C@@H](Cl)C[C@@H]2Br
GI50 (A549): 83.8 µM (inactive)
GI50 (BT-549): > 100 µM (inactive)
GI50 (CAKI-1): > 100 µM (inactive)
GI50 (CCRF-CEM): 33.3 µM (inactive)
GI50 (COLO 205): > 100 µM (inactive)
GI50 (HOP-92): 37.4 µM (inactive)
GI50 (Hs-578T): 65.8 µM (inactive)
GI50 (K562): 34.2 µM (inactive)
GI50 (NCI-H23): 61.4 µM (inactive)
GI50 (OVCAR-4): > 100 µM (inactive)
GI50 (OVCAR-5): > 100 µM (inactive)
GI50 (PC-3): > 100 µM (inactive)
GI50 (SK-MEL-28): > 100 µM (inactive)
GI50 (T47D): 44.7 µM (inactive)
GI50 (U-251): > 100 µM (inactive)
GI50 (UACC-62): 68.2 µM (inactive)
GI50 (UO-31): > 100 µM (inactive)

CN(CCNC(=O)c1cn(C)c2c1ccc1ccccc12)CCNC(=O)c1cn(C)c2c1ccc1ccccc12
GI50 (A549): 3.59 µM (inactive)
GI50 (BT-549): 1.26 µM (inactive)
GI50 (CAKI-1): 2.47 µM (inactive)
GI50 (CCRF-CEM): 2.44 µM (inactive)
GI50 (HOP-92): 2.07 µM (inactive)
GI50 (Hs-578T): 2.18 µM (inactive)
GI50 (K562): 0.365 µM (active)
GI50 (NCI-H23): 3.14 µM (inactive)
GI50 (NCI/ADR-RES): 7.82 µM (inactive)
GI50 (OVCAR-4): 5.62 µM (inactive)
GI50 (OVCAR-5): 1.69 µM (inactive)
GI50 (PC-3): 2.42 µM (inactive)
GI50 (RPMI-8226): 2.59 µM (inactive)
GI50 (SK-MEL-28): 1.97 µM (inactive)
GI50 (U-251): 2.04 µM (inactive)
GI50 (UACC-62): 2.7 µM (inactive)
GI50 (UO-31): 1.91 µM (inactive)

CSc1csc(-c2ccc(-c3ccc(-c4cc(SC)cs4)s3)s2)c1
GI50 (A549): > 100 µM (inactive)
GI50 (BT-549): > 100 µM (inactive)
GI50 (CCRF-CEM): > 100 µM (inactive)
GI50 (COLO 205): > 100 µM (inactive)
GI50 (Hs-578T): > 100 µM (inactive)
GI50 (K562): > 100 µM (inactive)
GI50 (NCI-H23): > 100 µM (inactive)
GI50 (NCI/ADR-RES): > 100 µM (inactive)
GI50 (OVCAR-4): > 100 µM (inactive)
GI50 (OVCAR-5): > 100 µM (inactive)
GI50 (PC-3): > 100 µM (inactive)
GI50 (RPMI-8226): > 100 µM (inactive)
GI50 (SK-MEL-28): > 100 µM (inactive)
GI50 (U-251): > 100 µM (inactive)
GI50 (UACC-62): > 100 µM (inactive)
GI50 (UO-31): > 100 µM (inactive)

CN(C(=O)Cc1ccc(Cl)c(Cl)c1)[C@@H]1CCCC[C@H]1[N+]1(C)CC=CC1
GI50 (A549): > 100 µM (inactive)
GI50 (BT-549): > 100 µM (inactive)
GI50 (CAKI-1): > 100 µM (inactive)
GI50 (COLO 205): > 100 µM (inactive)
GI50 (HL-60): > 100 µM (inactive)
GI50 (HOP-92): > 100 µM (inactive)
GI50 (K562): > 100 µM (inactive)
GI50 (NCI-H23): > 100 µM (inactive)
GI50 (NCI/ADR-RES): > 100 µM (inactive)
GI50 (OVCAR-4): > 100 µM (inactive)
GI50 (OVCAR-5): > 100 µM (inactive)
GI50 (PC-3): > 100 µM (inactive)
GI50 (RPMI-8226): > 100 µM (inactive)
GI50 (SK-MEL-28): > 100 µM (inactive)
GI50 (T47D): > 100 µM (inactive)
GI50 (U-251): > 100 µM (inactive)
GI50 (UACC-62): > 100 µM (inactive)
GI50 (UO-31): > 100 µM (inactive)

CSCCCNC(=O)c1csc([C@@H](CSC)NC(=O)CCNC(=O)[C@@H](NC(=O)OCC(Br)(Br)Br)C(C)O)n1 (stereo not given in full)
GI50 (A549): > 100 µM (inactive)
GI50 (BT-549): > 100 µM (inactive)
GI50 (CAKI-1): > 100 µM (inactive)
GI50 (CCRF-CEM): > 100 µM (inactive)
GI50 (COLO 205): > 100 µM (inactive)
GI50 (HL-60): > 100 µM (inactive)
GI50 (HOP-92): > 100 µM (inactive)
GI50 (Hs-578T): > 100 µM (inactive)
GI50 (K562): > 100 µM (inactive)
GI50 (NCI-H23): > 100 µM (inactive)
GI50 (NCI/ADR-RES): > 100 µM (inactive)
GI50 (OVCAR-4): > 100 µM (inactive)
GI50 (OVCAR-5): > 100 µM (inactive)
GI50 (PC-3): > 100 µM (inactive)
GI50 (SK-MEL-28): > 100 µM (inactive)
GI50 (U-251): > 100 µM (inactive)
GI50 (UACC-62): > 100 µM (inactive)
GI50 (UO-31): > 100 µM (inactive)

CCOP(=O)(/C=C\n1cc(C)c(=O)[nH]c1=O)OCC
GI50 (A549): > 100 µM (inactive)
GI50 (BT-549): > 100 µM (inactive)
GI50 (CAKI-1): > 100 µM (inactive)
GI50 (CCRF-CEM): > 100 µM (inactive)
GI50 (COLO 205): > 100 µM (inactive)
GI50 (HL-60): > 100 µM (inactive)
GI50 (K562): > 100 µM (inactive)
GI50 (NCI-H23): > 100 µM (inactive)
GI50 (NCI/ADR-RES): > 100 µM (inactive)
GI50 (OVCAR-4): > 100 µM (inactive)
GI50 (OVCAR-5): > 100 µM (inactive)
GI50 (PC-3): > 100 µM (inactive)
GI50 (RPMI-8226): > 100 µM (inactive)
GI50 (SK-MEL-28): > 100 µM (inactive)
GI50 (T47D): > 100 µM (inactive)
GI50 (U-251): > 100 µM (inactive)
GI50 (UACC-62): > 100 µM (inactive)

c1ccc2c(c1)SCCCSCCSCCCS2
GI50 (A549): > 100 µM (inactive)
GI50 (BT-549): > 100 µM (inactive)
GI50 (CCRF-CEM): > 100 µM (inactive)
GI50 (COLO 205): > 100 µM (inactive)
GI50 (HL-60): 39.4 µM (inactive)
GI50 (HOP-92): 48.9 µM (inactive)
GI50 (K562): > 100 µM (inactive)
GI50 (NCI-H23): > 100 µM (inactive)
GI50 (NCI/ADR-RES): > 100 µM (inactive)
GI50 (OVCAR-4): 93.5 µM (inactive)
GI50 (OVCAR-5): > 100 µM (inactive)
GI50 (PC-3): > 100 µM (inactive)
GI50 (SK-MEL-28): > 100 µM (inactive)
GI50 (T47D): > 100 µM (inactive)
GI50 (U-251): > 100 µM (inactive)
GI50 (UACC-62): > 100 µM (inactive)
GI50 (UO-31): 60.5 µM (inactive)

CN1CC[C@]2(c3cccc(O)c3)CC(=O)/C(=C/c3ccc(Cl)c(Cl)c3)[C@@H]1C2
GI50 (A549): 1.6 µM (inactive)
GI50 (BT-549): 1.75 µM (inactive)
GI50 (CAKI-1): 1.08 µM (active)
GI50 (CCRF-CEM): 0.337 µM (active)
GI50 (COLO 205): 1.6 µM (inactive)
GI50 (HL-60): 0.199 µM (active)
GI50 (HOP-92): 1.22 µM (inactive)
GI50 (Hs-578T): 3.05 µM (inactive)
GI50 (K562): 0.296 µM (active)
GI50 (NCI-H23): 1.53 µM (inactive)
GI50 (NCI/ADR-RES): 1.54 µM (inactive)
GI50 (OVCAR-4): 1.47 µM (inactive)
GI50 (OVCAR-5): 1.77 µM (inactive)
GI50 (PC-3): 0.324 µM (active)
GI50 (RPMI-8226): 0.262 µM (active)
GI50 (SK-MEL-28): 1.55 µM (inactive)
GI50 (U-251): 0.975 µM (active)
GI50 (UO-31): 1.32 µM (inactive)

CC(=O)C(C)C(=O)N1C(=O)N(C)C2(C)N(C)C(=O)NC12C (stereo not given)
GI50 (A549): > 100 µM (inactive)
GI50 (BT-549): > 100 µM (inactive)
GI50 (CAKI-1): > 100 µM (inactive)
GI50 (COLO 205): > 100 µM (inactive)
GI50 (HL-60): > 100 µM (inactive)
GI50 (HOP-92): > 100 µM (inactive)
GI50 (Hs-578T): > 100 µM (inactive)
GI50 (NCI-H23): > 100 µM (inactive)
GI50 (NCI/ADR-RES): > 100 µM (inactive)
GI50 (OVCAR-4): > 100 µM (inactive)
GI50 (OVCAR-5): > 100 µM (inactive)
GI50 (RPMI-8226): > 100 µM (inactive)
GI50 (SK-MEL-28): > 100 µM (inactive)
GI50 (U-251): > 100 µM (inactive)
GI50 (UACC-62): > 100 µM (inactive)
GI50 (UO-31): > 100 µM (inactive)
